Data as given in publication PMC11904948, “Peptide‐Drug Conjugate for Therapeutic Reprogramming of Tumor‐Associated Macrophages in Breast Cancer” (Advanced Science, 2025).
Peptide text beside a SMILES is read from it. * marks the point of attachment. 5FAM = O=C1OC2(c3ccc(O)cc3Oc3cc(O)ccc32)c2ccc(C(=O)*)cc21; Ahx = NCCCCCC(=O)O

Columns and labels:
CD206 = details: cited from earlier work
Text: Targeting CD206 is also promising for diagnostic purposes, as an increased number of CD206^+ cells in lymph nodes correlates with relapse onset in some cancers.^[ [6] ^] Most synthetic compounds designed to target CD206 utilize mannose as the recognition moiety.

[1] = Peptide stability in 4T1 tumor lysate (LC-MS); format: in vitro ADME; details: lysate of 4T1 orthotopic TNBC tumors (mouse), 30 µM peptide, 37 °C, aliquots 0, 10, 30, 60, 180, 1440 min
Description: Figure 3 MACTIDE has higher affinity and proteolytic stability than mUNO. A) QCM experiment of MACTIDE, mUNO, and control peptides at a final concentration of 10 µM in PBS on multilayers of PAH/CD206 or control multilayers of PAH/BSA. The black arrow indicates when the peptides were added, blue and red arrows indicate when the washing step with PBS started. B) Integrity of FAM‐MACTIDE and FAM‐mUNO measured by LC‐MS at different time points after incubation of peptides with lysate derived from a 4T1 tumor.
We next evaluated the stability of fluorescein (FAM)‐MACTIDE against proteases from breast tumors. To this end, we incubated both FAM‐MACTIDE and FAM‐mUNO with a tumor lysate obtained from 4T1 orthotopic TNBC tumors using different timepoints and evaluated the integrity of the peptide using liquid chromatography‐mass spectrometry (LC‐MS). We observed that the half‐life of FAM‐MACTIDE in this tumor lysate increased 5‐fold with respect to FAM‐mUNO (Figure 3B).
For peptide stability measurements, 200 µL of freshly prepared tumor lysate was mixed with 50 µL of PBS (as control), 30 µM of FAM‐mUNO, or 30 µM of FAM‐MACTIDE and incubated at 37 °C. 40 µL aliquots were taken at 0, 10, 30, 60, 180 and 1440 min. 80 µL of methanol was added to each aliquot and it was immediately stored at −80 °C until analysis later on the same or the following day. […]

CD206^+ TAM = assay: In vivo homing to CD206+ TAM in orthotopic 4T1 tumor-bearing mice; parameters: species or system Balb/c mice; details: 30 nmol, 24 h circulation
Description: (§1) We subsequently determined the blood half‐life of FAM‐MACTIDE using i.v. and i.p. administration (Figure S1, Supporting Information).
Thirty nmol of FAM‐MACTIDE or FAM‐mUNO were administered i.v. (A), i.p. (B), or orally (C) and left to circulate for 24 h. After 24 h, mice were sacrificed, and the organs were collected, fixed, cryoprotected, sectioned, and immunostained for FAM (shown in green) and CD206 (shown in red). The CD206/FAM colocalization indices were calculated from representative images from n = 3 tumors, using Fiji (Mandler's tM2 index) and the signal intensity per CD206^+ TAM (i.p. administration) was quantified using ImageJ (B). Scale bars = 100 µm. ^* p ≤ 0.05, ^** p ≤ 0.01 (Anova one‐way fisher LSD).
(§2) When tumors reached ≈100 mm^3, 30 nmol of FAM‐MACTIDE or FAM‐mUNO was injected i.p., i.v. or through oral gavage and circulated for 24 h. […] Blocks were cryosectioned at 10 µm thickness on Superfrost+ slides (ThermoFisher Scientific, catalog no. J1800AMNZ) and stored at −20 °C or used instantly. Immunofluorescence staining was performed as described previously.^[ [5] ^] […] Slides were counterstained using 4,6‐diamidino‐2‐phenylindole (DAPI, 5 µg mL^−1 in PBS, Sigma–Aldrich, catalog no. D9542‐5MG). […] The colocalization analysis was performed using the “Coloc2” plugin in the Fiji program using Mandler's tM2 index. Values were obtained from at least three individual images per mouse per group and their average values were plotted. The FAM mean signal per CD206^+ cell analysis was measured using Fiji, taking the mean FAM signal, and dividing it by the number of CD206^+ cells. Average values were obtained from four images per mouse for n = 3 mice.

[2] = Liver accumulation in the biodistribution study; format: in vivo, Balb/c mice; details: i.v., i.p. and oral, 30 nmol, 24 h circulation, immunostaining, n = 3 mice
Description: as §1, §2

[3] = Blood half-life by plasma fluorescence; format: in vivo, mice; details: i.v. and i.p., 30 nmoles, plasma fluorescence in FAM channel, n = 3; compared with FAM-mUNO values of ref 5
Text: We subsequently determined the blood half‐life of FAM‐MACTIDE using i.v. and i.p. administration (Figure S1, Supporting Information). […] Importantly, we observed low liver accumulation with these administration routes for both peptides (Figure S2, Supporting Information).
Figure S1.: Pharmacokinetics of i.p. and i.v. administered FAM-MACTIDE (30 nmoles) analyzed by detecting plasma fluorescence in the FAM channel at different timepoints (n=3).

[4] = general statement, no reference given; cited from earlier work
Text: Verteporfin (V), is a photosensitizer and inhibitor of the activation of YAP.^[ [41] ^] […] Verteporfin, in its liposomal formulation Visudyne, is an approved drug for certain ophthalmological indications. In clinical trials for cancer therapy, Verteporfin is mostly used for photodynamic therapy (clinical trial identifiers: NCT03067051, NCT03033225, NCT04590664).

[5] = parameters: method as in PMID 39575977; details: cited from earlier work
[6] = parameters: method as in PMID 36632235; details: cited from earlier work

OC[C@H]1OC(O)[C@@H](O)[C@@H](O)[C@@H]1O (stereo partly drawn) [mannose]
affinity of mannose (CD206 recognition moiety) (CD206): millimolar range

FAM‐Ahx‐G(CTKSIPPIC)SPGAK‐OH (disulfide) [FAM‐MACTIDE, carboxyfluorescein-labelled MACTIDE]
half‐life in tumor lysate, fold increase with respect to FAM‐mUNO [1]: 5 fold
CD206/FAM colocalization (CD206^+ TAM; i.p., 4T1 tumors, Fiji tM2 index, n = 3 tumors): 80%
FAM intensity per CD206^+ TAM, fold higher than FAM‐mUNO (CD206^+ TAM; i.p., 4T1 tumors, ImageJ, n = 3 mice): 10 fold
CD206^+ TAM targeting, intravenous (CD206^+ TAM; i.v., immunostaining of 4T1 tumor sections for FAM and CD206): showed CD206^+ TAM targeting
CD206^+ TAM targeting, oral (CD206^+ TAM; oral gavage, immunostaining of 4T1 tumor sections): targeted CD206^+ TAM
liver accumulation [2]: does not accumulate in the liver
blood half‐life [3]: equal to those obtained previously for FAM‐mUNO

C[C@H](NC(=O)CNC(=O)[C@@H]1CCCN1C(=O)[C@H](CO)NC(=O)[C@H](CS)NC(=O)CCCCCNC(=O)c1ccc2c(c1)C(=O)OC21c2ccc(O)cc2Oc2cc(O)ccc21)C(=O)N[C@@H](CCCCN)C(=O)O [FAM‐mUNO, reference compound] ({5FAM-Ahx}-CSPGAK-OH)
liver accumulation [2]: does not accumulate in the liver

Verteporfin
solubility in water [4]: insoluble in water
cell specificity of free Verteporfin [5]: not cell‐specific
cardiotoxicity in vivo [6]: cardiotoxicity
